Reference: patent US20130065868A1, “ANXIOYTIC MARCGRAVIACEAE COMPOSITIONS CONTAINING BETULINIC ACID, BETULINIC ACID DERIVATIVES, AND METHODS” (UNIVERSITY OF OTTAWA, priority 2002, published 2013)
Where two headings read alike, the source gives them in different places.

Assays:
[1] = biological target: COX-1 (Homo sapiens, UniProt P23219); assay: MDS Panlabs screen: cyclooxygenase COX-1; type: biochemical
Experimental: (§1) Tests were conducted by MDS Panlabs to determine whether any of the classical neurotransmitter systems or the peptidergic systems thought to play a role in anxiety are affected by betulinic acid.

[2] = system: CD-1 strain of mice; assay: Elevated plus maze test in CD-1 mice; type: in vivo, mouse; details: for entries into the open (anxiogenic) arm of the elevated plus maze: 45-60 min, vs peanut oil control
Experimental: Previous experiments were all conducted in experimental rats. Here we tested the effect of betulinic acid on CD-1 strain of mice. Mice received 0.25 or 2.5 mg/kg of betulinic acid, or peanut oil only (control), intra peritoneally (“i.p.”), and were tested 45-60 minutes later in the elevated plus maze test.

[3] = system: Sprague Dawley rats; assay: Locomotor activity after chronic administration; type: in vivo, rat; details: chronic 0.5 mg/kg daily orally, one night 5 p.m. to 7 a.m. (FIG. 11)
Experimental: Test animals and drug treatments were as in Example 14. Locomotor activity was recorded for one night (5 p.m. to 7 a.m. the following morning) in the control as well as in the betulinic acid and methyl ester of betulinic acid exposed groups. Locomotor activity was monitored using infrared sensors located on the roof of the animals' cage. Eight independent sensors monitored activity of animals according to the number of quadrants traversed.

[4] = system: Sprague-Dawley rats; assay: Fear-potentiated startle paradigm in rats; type: in vivo, rat
Source text: In this anxiety/fear paradigm, rats are first trained to associate a neutral stimulus (a light) with an aversive stimulus (an electric shock to the foot). […] However, when the acoustic stimulus is preceded by a fear cue (the light in this case), there is potentiation of their natural startle response. This potentiation of startle responses is thought to result from a classically conditioned increase in fear. Anxiolysis is inferred when there is a reduction in the magnitude of the fear-potentiated startle response.
The fear potentiated startle equipment (Med-Associates, St-Albans, Vt.) constituted (1) a pressure-sensitive platform upon which the animal is placed (in an enclosure with shock-grid floor), (2) Speakers and amplifier, to deliver acoustic stimulus, (3) Computer controlled light cue, and (4) a computerized interface to deliver the auditory and/or visual stimuli, and to record the magnitude of startle detected by the platform. The whole set up is housed in a sound attenuated and darkened chamber.
The experiment involved three phases; a training phase, a screening phase and the testing phase. […] The second or screening phase involved identifying the rats that learnt to associate the light cue with the shock, which was assessed by measuring their startle response in the absence and the presence of the fear cue. […]

[5] = biological target: Histamine H2 (Homo sapiens, UniProt P25021); assay: MDS Panlabs screen: Histamine H2; type: binding
Chain of Histamine H2 (P25021 whole entry): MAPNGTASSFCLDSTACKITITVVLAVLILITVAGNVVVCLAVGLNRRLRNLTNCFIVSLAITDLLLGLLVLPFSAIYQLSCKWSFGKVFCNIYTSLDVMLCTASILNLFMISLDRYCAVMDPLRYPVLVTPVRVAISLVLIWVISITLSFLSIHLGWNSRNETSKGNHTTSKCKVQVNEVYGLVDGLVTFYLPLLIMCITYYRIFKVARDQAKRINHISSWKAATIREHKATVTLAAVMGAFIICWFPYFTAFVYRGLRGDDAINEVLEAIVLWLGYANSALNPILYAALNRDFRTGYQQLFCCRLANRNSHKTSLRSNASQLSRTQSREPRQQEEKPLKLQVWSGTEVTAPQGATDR
Experimental: as §1

[6] = biological target: Histamine H3 (Homo sapiens, UniProt Q9Y5N1); assay: MDS Panlabs screen: Histamine H3; type: binding
Chain of Histamine H3 (Q9Y5N1 whole entry): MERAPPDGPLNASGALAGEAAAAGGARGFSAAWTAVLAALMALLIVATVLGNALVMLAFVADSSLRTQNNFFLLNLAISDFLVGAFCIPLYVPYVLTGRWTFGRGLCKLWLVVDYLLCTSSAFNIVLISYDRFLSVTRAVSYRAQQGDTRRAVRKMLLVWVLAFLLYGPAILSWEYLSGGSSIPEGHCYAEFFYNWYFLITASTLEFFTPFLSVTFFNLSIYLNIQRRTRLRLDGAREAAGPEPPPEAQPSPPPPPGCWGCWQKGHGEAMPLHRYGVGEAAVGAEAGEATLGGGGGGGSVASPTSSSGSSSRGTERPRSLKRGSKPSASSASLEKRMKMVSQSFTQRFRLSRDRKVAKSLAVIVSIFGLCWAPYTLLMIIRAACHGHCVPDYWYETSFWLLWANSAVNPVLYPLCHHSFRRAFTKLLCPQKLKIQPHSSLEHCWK
Experimental: as §1

[7] = system: BALB/c mice; assay: Elevated plus maze test in BALB/c mice; type: in vivo, mouse; details: vs peanut oil only control
Source text: BALB/c mice represent a strain of mice that is very stress-reactive.
Mice received dosages of betulinic acid in accordance with the previous example.

[8] = system: interleukin IL-1α; assay: MDS Panlabs screen: interleukin IL-1α; type: binding; details: Peptides
Experimental: as §1

[9] = cited from earlier work
[10] = system: GABAA, BZP; assay: MDS Panlabs screen: GABAA, BZP; type: binding; details: Gabaergic
Experimental: as §1

[11] = system: 5-HT1; assay: MDS Panlabs screen: 5-HT1; type: binding; details: Serotonin (5-HT)
Experimental: as §1

Chain of COX-1 (P23219 24-599): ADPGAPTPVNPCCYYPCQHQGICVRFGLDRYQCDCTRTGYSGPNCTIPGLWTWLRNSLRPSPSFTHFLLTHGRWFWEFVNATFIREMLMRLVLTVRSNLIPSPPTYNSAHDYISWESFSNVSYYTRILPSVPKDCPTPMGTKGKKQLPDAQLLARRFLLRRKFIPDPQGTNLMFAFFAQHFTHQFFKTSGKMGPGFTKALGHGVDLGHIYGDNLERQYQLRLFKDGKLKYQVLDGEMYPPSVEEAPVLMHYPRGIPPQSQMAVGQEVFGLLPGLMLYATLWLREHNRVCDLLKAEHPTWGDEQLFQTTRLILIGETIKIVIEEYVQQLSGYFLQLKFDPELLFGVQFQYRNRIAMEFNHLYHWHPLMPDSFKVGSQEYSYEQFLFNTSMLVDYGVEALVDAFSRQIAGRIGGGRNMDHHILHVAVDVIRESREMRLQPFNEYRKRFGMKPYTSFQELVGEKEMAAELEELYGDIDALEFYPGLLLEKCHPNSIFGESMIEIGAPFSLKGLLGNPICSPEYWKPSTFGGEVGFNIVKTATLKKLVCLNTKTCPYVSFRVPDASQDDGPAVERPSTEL

SMILES: C=C(C)[C@@H]1CC[C@]2(C(=O)O)CC[C@]3(C)C(CC[C@@H]4[C@@]5(C)CC[C@H](O)C(C)(C)[C@@H]5CC[C@]43C)[C@@H]12 (stereo partly shown) [betulinic acid, Betulinic acid]
- affected by betulinic acid [1]: none of the following neurotransmitters or proteins were affected
- entries into the open (anxiogenic) arm of the elevated plus maze ([2]; CD-1 mice, 0.25 mg/kg i.p.): more often than controls
- entries into the open (anxiogenic) arm of the elevated plus maze ([2]; CD-1 mice, 2.5 mg/kg i.p.): more often than controls
- proportion of time spent on the open arm of the maze ([2]; CD-1 mice, 0.25 or 2.5 mg/kg i.p. (dose not singled out in the sentence)): increased significantly
- maximally effective dose ([2]; mice, i.p., elevated plus maze, higher dose did not increase the effect further): 0.25 mg/kg
- adverse effect on locomotor activity or pattern [3]: neither betulinic acid nor the methyl ester of betulinic acid had an adverse effect on locomotor activity or pattern
- startle response in the presence of the fear-cue ([4]; 1 mg/kg in peanut oil orally (gavage), 45-60 min after treatment (FIG. 4)): significantly attenuated the startle response in the presence of the fear-cue
- difference in startle amplitude (presence minus absence of the fear cue) ([4]; 1 mg/kg orally (gavage), vs peanut oil control (FIG. 4)): much lower
- affected by betulinic acid [5]: none of the following neurotransmitters or proteins were affected
- affected by betulinic acid [6]: none of the following neurotransmitters or proteins were affected
- number of entries on the open arm of the elevated plus maze ([7]; 0.25 mg/kg i.p.): significantly increased
- proportion of time spent on the open arm of the elevated plus maze ([7]; 0.25 mg/kg i.p.): significantly increased
- number of entries on the open arm of the elevated plus maze ([7]; 2.5 mg/kg i.p.): significantly increased
- proportion of time spent on the open arm of the elevated plus maze ([7]; 2.5 mg/kg i.p.): significantly increased
- affected by betulinic acid [8]: none of the following neurotransmitters or proteins were affected
- toxicity in a Hippocratic screen ([9]; 200 mg/kg): non-toxic
- toxicity in a Hippocratic screen ([9]; 400 mg/kg): non-toxic
- affected by betulinic acid [10]: none of the following neurotransmitters or proteins were affected
- affected by betulinic acid [11]: none of the following neurotransmitters or proteins were affected
